Test results as given in PMC11672137, “High-Affinity Lectin Ligands Enable the Detection of Pathogenic Pseudomonas aeruginosa Biofilms: Implications for Diagnostics and Therapy” (JACS Au, 2024).

Tests used:
LecA = target: T1, LecA (Pseudomonas aeruginosa, UniProt Q05097); experiment: Direct binding assay based on fluorescence polarization, titration with LecA
T1 construct: made in house
Protocol: The binding affinities of imaging probes 2–4 for LecA were determined using a direct binding assay based on fluorescence polarization (FP).[47]
(A, C) Monovalent LecA imaging probes 2–4 based on phenyl β-D-galactoside (1) were titrated with LecA. […] (E) Xyloside-fluorescein conjugate (8) and azido fluorescein (9) served as negative controls in titrations with LecA and LecB, respectively. Averages and standard deviations were determined from at least three independent titrations of technical triplicates each.
Direct binding affinity determination of LecA and LecB imaging probes was performed with direct titration of protein and imaging probes in TBS/Ca2+ buffer. Protein dilution series was prepared in 96 well plates and 10 µL of each dilution in triplicates were mixed with 10 µL of fluorescent compound (20 nM) in 384-well microtiter plates (Greiner Bio-One, Germany, cat no 781900). The plates were centrifuged (1 min, 500 g), sealed and incubated for 2 h in dark wet chamber under gentle shaking. Fluorescence was measured on a PheraStar FS plate reader (BMG Labtech GmbH, Germany) with excitation filters at 485 nm and emission filters at 535 nm. The data were analysed with MARS Data Analysis Software (BMG Labtech GmbH, Germany) to calculate Kd values.

[1] = test system: P. aeruginosa PAO1 biofilm aggregates; experiment: In vitro biofilm staining under static conditions (CLSM); type: cell-based, Pseudomonas aeruginosa; details: 10 μM probe
Protocol: The ability of LecA- and LecB-targeting probes to image P. aeruginosa biofilms was evaluated in vitro. P. aeruginosa PAO1, constitutively expressing mCherry from plasmid pMP7605,[56] was cultivated in microtiter plates under shaking conditions to form biofilm aggregates, as reported previously.[43] Fluorescein-carbohydrate conjugates were added to the bacterial culture to reach a final concentration of 10 μM and biofilms were analyzed by confocal laser scanning microscopy (CLSM) under static conditions (Figures 2 and S4). […] To our surprise, the intended negative control xyloside 8 also stained the P. aeruginosa biofilms (Figures 2C and S4). In all cases, the green signal originating from the fluorescein conjugates was not homogeneously spread over the entire structure of the biofilm aggregates, but a certain heterogeneity was observed across biofilm regions as bright spots. Further, the intensity of staining varied between replicates (see the Supporting Information for individual experiments). […] Instead, only a very faint green shadow was detected for 9 indicating its suitability as a negative control. Thus, the observed biofilm staining with imaging probes 2, 3, 6, 7 and also xyloside 8 was carbohydrate dependent and while 2, 3 and 6, 7 are ligands of LecA and LecB, respectively, the molecular mechanism of xyloside 8 remains elusive.
One representative image of stained aggregates is shown. […] Scale bar = 50 μm.
P. aeruginosa PAO1 expressing the red fluorescent protein mCherry (pMP7605)23 was selected for this study. For this, P. aeruginosa PAO1 (DSM 19880, Braunschweig, Germany) was transformed with the mCherry plasmid (pMP7605).23 Bacteria were stored at -80 °C. For experimental use, bacteria were streaked on lysogeny broth (LB) agar (1% tryptone, 1% NaCl, 0,5% yeast extract, 1.3% agar) containing 60 µg/mL gentamicin (Gm) and incubated at 37 °C overnight. For liquid cultures, bacterial colonies were transferred from LB agar to 10 mL LB (1% tryptone, 1% NaCl, 0,5% yeast extract) containing 60 µg/mL Gm and incubated at 37 °C and 180 rpm overnight. For exponential growth, 10 mL of LB containing 60 µg/mL Gm were inoculated with P. aeruginosa PAO1 mCherry (pMP7605)23 using an overnight liquid culture […]
In vitro biofilm staining under static conditions
Biofilm staining experiments were performed in analogy to Wagner et al. with P. aeruginosa PAO1 pMP7605 (Figure S4).23,24 Bacterial overnight cultures were inoculated from single colonies in 5 mL LB supplemented with gentamicin (120 µg/mL) and grown at 37 °C and 180 rpm. The bacterial overnight cultures were then diluted to OD600 of 0.02 with LB and 500 µL of culture per well were transferred to 24-well plate (24CG, Art. No. 5231 or 24FC, Art. No. 3231). The biofilm was grown under shaking conditions (180 rpm) at 37 °C for 20–24 h. Biofilm aggregates were visualized using a confocal laser scanning microscope (Leica TCS Sp8 CLSM) using a 25× numerical-aperture water objective. Z-stacks (463 x 463 μm) were recorded every 2 μm for mCherry (ex.: 561 nm, red) and for fluorescein containing imaging compounds (ex.: 488 nm, green). […]
Maximum Intensity Projections (contrast range automatically adjusted by Imaris). Only one staining experiment was carried out for imaging probes 4 and S26, all other fluorescein conjugates were analyzed in at least three independent experiments.

[2] = test system: P. aeruginosa PAO1 biofilms; experiment: In vitro biofilm staining under flow conditions, compound supplementation to the medium; type: cell-based, Pseudomonas aeruginosa; details: for Biofilm staining after accumulation: 500 nM in medium, 4 h, fluorescence microscope; for Biofilm staining by CLSM after accumulation: 500 nM, 4 h accumulation, without washing
Protocol: P. aeruginosa biofilms were grown under flow conditions and observed by fluorescence microscopy in analogy to Ghanbari et al.[66] To this end, P. aeruginosa PAO1 expressing the red fluorescent protein mCherry[56] was diluted to an OD600 nm of 0.1 and injected into the microfluidics device. After a 30-min settling period, biofilms were grown under a constant laminar flow rate of 3 mL/h per channel. Following 48 h of incubation at 30 °C, dense and mature P. aeruginosa PAO1 biofilms were observed, which were then further used for analysis of the imaging probes.
To circumvent these technical drawbacks, the addition of compounds to the medium reservoir and retention at the biofilm was pursued. Imaging compounds were added to the medium reservoirs at a concentration of 500 nM, which were continuously pumped (3 mL/h) through the flow cell for 4 h. Compound accumulation at mature P. aeruginosa biofilms was immediately analyzed using fluorescence microscopy. Afterwards, the medium was exchanged, and the biofilms were washed for 30 min (3 mL/h, no compound) to monitor the retention (Figure 5). Furthermore, an analysis using CLSM was also performed after 4 h of accumulation without washing (Figures 5 and S22).
Figure 5 Staining of P. aeruginosa PAO1 biofilms grown under flow conditions with compound supplementation to the medium. Biofilm staining with (A) fluorescein divalent probe 17, (B) fluorescein control 24, (C) BODIPY divalent probe 19, and (D) BDP FL azide control 18 was monitored after 4 h of accumulation under constant flow (3 mL/h) of LB media containing 500 nM of respective compound. Retention of imaging compounds is shown after a subsequent wash period for 30 min with medium (3 mL/h, no compound). Images were recorded by using a fluorescence microscope. CLSM was performed for (E) BODIPY divalent probe 19 and the control (F) BDP FL azide 18 after 4 h of accumulation. Green signal originates from fluorescently labeled probes 17 and 19 and controls 24 and 18. P. aeruginosa constitutively expressing mCherry from pMP7605^56 is shown in red. Z-Stack size, 2 μm. Scale bar = 50 μm.
In vitro biofilm staining under flow conditions
The flow cell experiment was set up in analogy to Ghanbari et al. and in this study, optimized and established for biofilm staining.25 In principle, the experiment is based on an inlet connected to a medium source, a peristaltic pump providing constant medium flow, a flow chamber enabling analysis of bacterial growth and an outlet (waste container/bottle).
The medium used in the flow system was LB diluted by factor 5 containing 60 µg/mL
Gm. Silicone tubings 1.6 mm (ibidi, Germany) were used transporting medium from inlet to the peristaltic pump (Watson-Marlow Fluid Technology Solutions). Stopper hoses (CarlRoth) placed in peristaltic pump were coupled to silicone tubes via connectors (ibidi, Germany).
Stopper hoses are connected to bubble traps (obtained by Claus Sternberg, DTU Copenhagen) via 0.8 mm silicone tubing (ibidi, Germany). Bubble traps were used to remove air from the medium flow and to avoid biofilm disruption. Downstream from the bubble traps, the flow cell (μ-Slide VI 0.4 ibiTreat, ibidi, Germany) was placed into the system and connected to 1.6 mm silicone tubes (ibidi, Germany). The outlet is leading the medium from flow chamber to a waste […]
In order to inoculate the flow cell with P. aeruginosa PAO1 mCherry (pMP7605)23 the silicone tubes upstream and downstream of the flow chamber were pinched off by using commercial plastic clamps. The medium flow was stopped and the flow cell was inoculated by injecting 300 µL of the bacterial suspension (OD600nm of 0.1) into the silicone tubing upstream of the flow chamber. For this, a cannula (0.30 x 12 mm, Sterican) was used. The injection point was sealed with silicone glue. After bacterial settling time of 30 min, the flow was started again and clamps were removed. Growth temperature was regulated by using a heat system (ibidi, […]
Germany). […]

[3] = test system: P. aeruginosa PAO (DSM 1707) lung infection; experiment: Optical in vivo imaging and ex situ organ analysis in acute P. aeruginosa airway infection model; set-up: species or system mice
Protocol: Encouraged by the high affinity of the imaging probes and their ability to stain P. aeruginosa biofilms in vitro, we further investigated the compounds in vivo using an acute P. aeruginosa airway infection model in mice. Intratracheal administration of P. aeruginosa PAO (DSM 1707) results in a local infection that is mainly restricted to the lungs. With the infection dose of 2 × 10^6 cfu/50 μL chosen here, the number of bacteria peaks at 6 h after infection before the host immune system clears the bacteria.[70]
Then, imaging probes, divalent LecA-targeting probe 21, LecB-targeting probe 22 and the control sulfo-Cy7 (free acid), were administered intravenously to the tail vein 2 h post infection. […] This accumulation in the lungs was then confirmed by a subsequent ex vivo analysis of the organs.
Figure 6 Optical in vivo imaging in mice and ex situ analysis of organs with P. aeruginosa PAO acute lung infection. In vivo imaging of mice with P. aeruginosa intratracheal infection (right) or uninfected control mice (left) after intravenous administration of imaging probes 2 h post infection: (A) 50 nmol/20 g divalent LecA probe 21 or (B) 100 nmol/20 g LecB probe 22. Then, explanted lungs were analyzed for fluorescence intensity, shown as a false color scale in (C) divalent LecA probe 21 (left: uninfected, right: infected) and (D) LecB probe 22 (left: uninfected; middle: uninfected control without dye; right: infected). (E) Quantification of the average radiant efficiency of the divalent LecA ligand 21 and the control sulfo-Cy7 free acid in the lungs of uninfected and infected mice. Duplicate data points and the mean are depicted. (F) Average radiant efficiency was quantified for the LecB imaging probe 22 in lungs of infected and uninfected mice. In addition, (G) further mouse organs were explanted after i.v. injection of 21 (50 nmol/20 g) or control sulfo-Cy7 free acid (50 nmol/20 g) and imaged. Organs of uninfected (left), infected (right) mice, and uninfected mice without any dye (upper middle on the sulfo-Cy7 free acid rows) were compared. Fluorescence intensities are shown as false color pictures. […]
Lung infection model and in vivo imaging of P. aeruginosa
C57BL/6J and albino (Tyrc2J) C57BL/6 mice were bred and housed at the Central Animal Facility, Hannover Medical School, Germany. Animal experiments were performed with permission number: 33.9-42502-04-16/2072 from the Lower Saxony State Office for Consumer Protection and Food Safety (LAVES), Germany. Mice were anesthetized with 3% isoflurane (CP Pharma) and infected intratracheally with 2x10^6 cfu/50 µL of P. aeruginosa PAO (DSM1707, Braunschweig, Germany) as described previously.26
50 – 100 nmol sulfo-Cyanine7-compound (divalent LecA probe 21; LecB probe 22; control sulfoCy7 free acid, CAS no.: 2104632-30-4, Lumiprobe; control sulfoCy7 azide, 20, Lumiprobe) per 20 g mouse was injected intravenously 2 h after infection. Optical imaging was performed 4 – 7 h after compound administration. Mice were anesthetized with 3% isoflurane […]
an in vivo imaging system (IVIS SpectrumCT, PerkinElmer). Subsequently mice were euthanized and organs were imaged (675/760 nm) ex situ individually. To enhance Cyanine7 specific fluorescent signal spectral unmixing was performed on in vivo images using LivingImage 4.7 (PerkinElmer). […]

T1 sequence (Q05097 whole entry): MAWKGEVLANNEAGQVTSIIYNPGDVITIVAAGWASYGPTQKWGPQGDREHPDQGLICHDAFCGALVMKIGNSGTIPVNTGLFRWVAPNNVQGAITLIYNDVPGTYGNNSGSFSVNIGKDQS

For `O=C1OC2(c3ccc(O)cc3Oc3cc(O)ccc32)c2ccc(NC(=S)NCCOCCOCCOCCn3cc(CNc4cccc(S[C@@H]5O[C@H](CO)[C@H](O)[C@H](O)[C@H]5O)c4)nn3)cc21` [compound 2], the Kd (LecA) was 5.3 ± 0.7 µM and the “Staining of biofilm aggregates” value [1] was “showed staining”.

In the case of `O=C1OC2(c3ccc(O)cc3Oc3cc(O)ccc32)c2ccc(NC(=S)NCCOCCOCCOCCn3cc(CNc4ccc(S[C@@H]5O[C@H](CO)[C@H](O)[C@H](O)[C@H]5O)cc4)nn3)cc21` [compound 3], the Kd (LecA) is reported as 11.6 ± 0.7 µM and the “Staining of biofilm aggregates” value [1] is reported as “showed staining”.

`O=C1OC2(c3ccc(O)cc3Oc3cc(O)ccc32)c2ccc(NC(=S)NCCOCCOCCOCCn3cc(COc4ccc(S[C@@H]5O[C@H](CO)[C@H](O)[C@H](O)[C@H]5O)cc4)nn3)cc21` [compound 4] gave a Kd (LecA) of 8.5 ± 0.8 µM.

With `CC1=CC(C)=[N+]2C1=Cc1ccc(CCC(=O)NCCCN=[N+]=[N-])n1[B-]2(F)F` [compound 18, BDP FL azide, reference compound] the “Biofilm staining after accumulation” value ([2]; 3 mL/h) was “did not show any enrichment” and the “Biofilm staining by CLSM after accumulation” value [2] was “no signal was observed”.

`CC1=CC(C)=[N+]2C1=Cc1ccc(CCC(=O)NCCCn3cc(CCN(Cc4ccc(NC(=O)CCc5ccc(O[C@@H]6O[C@H](CO)[C@H](O)[C@H](O)[C@H]6O)cc5)cc4)Cc4ccc(NC(=O)CCc5ccc(O[C@@H]6O[C@H](CO)[C@H](O)[C@H](O)[C@H]6O)cc5)cc4)nn3)n1[B-]2(F)F` [compound 19] was tested, and the “Biofilm staining after accumulation” value ([2]; 3 mL/h) was “strong staining was observed”, the “Biofilm staining by CLSM after accumulation” value [2] was “clear and strong staining predominantly at the periphery of large biofilm aggregates” and the “Retention at biofilm after wash” value ([2]; after 4 h accumulation at 500 nM, 30 min wash, 3 mL/h, no compound) was “the strong signal was still observed”.

For `C[C@@H]1O[C@H](CNS(=O)(=O)c2ccc(-c3cn(CCCNC(=O)CCCCC[N+]4=C(/C=C/C5=CC(=C/C=C6/N(C)c7ccc(S(=O)(=O)O)cc7C6(C)C)/CCC5)C(C)(C)c5cc(S(=O)(=O)[O-])ccc54)nn3)s2)[C@@H](O)[C@H](O)[C@@H]1O` [compound 22], the “Average fluorescence radiant efficiency of explanted lungs” value ([3]; ex vivo analysis of organs, infected vs uninfected mice) was “elevated compared with uninfected mice”, the “Cyanine7 signal in lung area, optical in vivo imaging” value ([3]; i.v. 2 h post infection, infected vs uninfected mice, 21 50 nmol/20 g, 22 100 nmol/20 g) was “elevated Cyanine7 signals in the area of the lung of infected mice compared to uninfected mice” and the “Fluorescence ex vivo in lungs of uninfected animals compared to control sulfo-Cyanine7 (free acid)” value ([3]; uninfected mice, ex vivo quantification) was “a certain accumulation in the lungs of uninfected animals”.
